Laboratory results reported in patent publication US4009273A, “Substituted 10,11-dihydro-5,10-imino-[5H] dibenzo (a,d)-cycloheptene” (priority 1972, dated 1977).
“And” between values parts separate entries of the source, which are not always exact repeats. Equal values may be shown once.

Tests used:
DOPA = test: Potentialization of DOPA; assay type: in vivo, mice (male); details: 1 h before 50 mg/kg DOPA
Protocol: In this test, DOPA [racemic β-(3,4-dihydroxyphenyl)-alanine] was administered to mice pretreated with 1-isonicotinoyl-2-isopropyl-hydrazine18 hours before the test which product caused the following symptoms: hypertonicity, agitation, crying, aggressiveness, salivation and exophthalmia. The administration of an antidepressant one hour before the DOPA injection potentializes the intensity of the effects.
Male mice weighing between 18 to 22 g received intraperitoneally 50 mg/kg of 1-isonicotinoyl-2-isopropyl-hydrazine and 18 hours later the test product intraperitoneally in aqueous solution in increasing doses and 1 hour later received an intraperitoneal injection of 50 mg/kg of DOPA. The different effects were evaluated 15 and 30 minutes after the DOPA injection and each symptom was evaluated for each animal on a scale from 0 to 3 and the evaluations for each dose was totaled. The totals are reported in Table III as a percent of the total of control animals.

Acute toxicity = details: mouse, in vivo, ip, Swiss mice, observed for a week
Protocol: The acute toxicity was determined on groups of Swiss mice weighing 18 to 22 g and the test products were administered intraperitoneally in increasing doses and the animals were kept under observation for a week.

[1] = tested on: pentamethylenetetrazol convulsions; test: Anticonvulsant effect (pentamethylenetetrazol perfusion); assay type: in vivo, mice (female); details: 1 h before perfusion
Protocol: The anticonvulsant activity of the compounds was determined on groups of 10 female mice with intraperitoneal administration of the test compounds in acid solution at different doses and the control group received only the solvent. One hour after the injection, the mice were perfused with a solution of pentamethylenetetrazol in physiological serum at a concentration of 3 mg/ml. The perfusion was intraveinous at a rate of 1 ml per minute and in the course of the perfusion, the progress of introxication was characterized by the following 3 criteria:
a. Threshold of convulsant effect (myoclonia of the ears)
b. Crisis of clonic convulsions
c. Tonic convulsion with apnea and generally followed by death.

amphetamine deaths = test: Amphetamine toxicity in mice; assay type: in vivo, mice (female); details: mortality at 4 h
Protocol: The test was effected on group of 10 female mice weighing between 18 and 22 g kept at 27° C for the duration of the test. The test products were intraperitoneally administered in different doses in a volume of 0.01 ml /g of mouse. One hour later, the mice received an injection of 15 mg/kg of a solution of 1.5 mg of amphetamine per ml of physiological serum. The mortality 4 hours after the amphetamine injection was determined and the results were expressed as a ratio of number of dead animals to number of starting animals.

amytal sleeping time = test: Potentialization of sleeping time (amytal); assay type: in vivo, mice (female); details: 1 h before 80 mg/kg amytal i.v.
Protocol: The potentialization of sleeping time was determined with a test using amytal [5-ethyl-5-isoamyl-barbituric acid] in which groups of female mice weighing between 18 and 22 g were kept at 25° C for the duration of the test. The test products were administered intraperitoneally at different doses one hour before intraveinous injection of 80 mg/kg of amytal and the sleeping time was noted which is the time while the reflux of straightening in the mice was negative.

[2] = 5 mg/Kg i.p., 1 h before 15 mg/kg amphetamine
[3] = 10 mg/Kg i.p., 1 h before 15 mg/kg amphetamine
[4] = 20 mg/Kg i.p., 1 h before 15 mg/kg amphetamine
[5] = head prints only "mg/Kg" (dose figure missing), i.p.

SMILES | total symptom score as percent of the total of control animals (DOPA; 1 mg/Kg i.p.) | total symptom score as percent of the total of control animals (DOPA; 2 mg/Kg i.p.) | total symptom score as percent of the total of control animals (DOPA; 10 mg/Kg i.p.) | LD50 at 168 h (Acute toxicity) | Dose of pentamethylenetetrazol, Clonic Crisis ([1]; 1 mg/Kg i.p.) | Dose of pentamethylenetetrazol, Myoclonia ([1]; 1 mg/Kg i.p.) | Dose of pentamethylenetetrazol, Tonic Crisis ([1]; 1 mg/Kg i.p.) | Dose of pentamethylenetetrazol, Clonic Crisis ([1]; 2 mg/Kg i.p.) | Dose of pentamethylenetetrazol, Myoclonia ([1]; 2 mg/Kg i.p.) | Dose of pentamethylenetetrazol, Tonic Crisis ([1]; 2 mg/Kg i.p.) | Dose of pentamethylenetetrazol, Clonic Crisis ([1]; 5 mg/Kg i.p.) | Dose of pentamethylenetetrazol, Myoclonia ([1]; 5 mg/Kg i.p.) | Dose of pentamethylenetetrazol, Tonic Crisis ([1]; 5 mg/Kg i.p.) | ratio of number of dead animals to number of starting animals (amphetamine deaths; [2]) | ratio of number of dead animals to number of starting animals (amphetamine deaths; [3]) | ratio of number of dead animals to number of starting animals (amphetamine deaths; [4]) | average sleeping time (amytal sleeping time; 5 mg/Kg i.p.) | average sleeping time (amytal sleeping time; 10 mg/Kg i.p.) | average sleeping time (amytal sleeping time; 20 mg/Kg i.p.) | ratio of number of dead animals to number of starting animals (amphetamine deaths; [5]) | also measured
OCCN1C2Cc3ccccc3C1c1ccccc12 (stereo not drawn) [Example 6, 12-(2'-hydroxyethyl)-10,11-dihydro-5,10-imino-[5H]-dibenzo (a,d) cycloheptene dl] | 138% | 155% | 140% | 350 mg/kg | 45.7 mg/kg | 40.6 mg/kg | 144.2 mg/kg | 43.5 mg/kg | 38.6 mg/kg | 104.3 mg/kg | 45.5 mg/kg | 49.3 mg/kg | 204.6 mg/kg | 3/10 | 9/10 and 3/10 | 0/10 |  |  |  |  | Dose of pentamethylenetetrazol, Clonic Crisis ([1]; 0.5 mg/Kg i.p.): 42.9 mg/kg; Dose of pentamethylenetetrazol, Myoclonia ([1]; 0.5 mg/Kg i.p.): 38.2 mg/kg; Dose of pentamethylenetetrazol, Tonic Crisis ([1]; 0.5 mg/Kg i.p.): 129.0 mg/kg
CC(=O)CN1C2Cc3ccccc3C1c1ccccc12 (stereo not drawn) [Example 7, 12-acetonyl-10,11-dihydro-5,10-imino-[5H]-dibenzo (a,d) cycloheptene dl] | 114% | 135% | 173% | 350 mg/kg | 52.7 mg/kg | 47.7 mg/kg | 172.5 mg/kg | 62.6 mg/kg | 57.7 mg/kg | 172.5 mg/kg | 112.5 mg/kg | 107.4 mg/kg | 238.9 mg/kg | 2/10 | 0/10 | 0/10 | 31.3 min | 51.2 min | 82.3 min | 0/10 | average sleeping time (amytal sleeping time; 50 mg/Kg i.p.): 107.5 min; total symptom score as percent of the total of control animals (DOPA; 5 mg/Kg i.p.): 138%; Dose of pentamethylenetetrazol, Clonic Crisis ([1]; 0.5 mg/Kg i.p.): 53.3 mg/kg; Dose of pentamethylenetetrazol, Myoclonia ([1]; 0.5 mg/Kg i.p.): 48.6 mg/kg; Dose of pentamethylenetetrazol, Tonic Crisis ([1]; 0.5 mg/Kg i.p.): 119.2 mg/kg
CN(C)CC(=O)N1C2Cc3ccccc3C1c1ccccc12 (stereo not drawn) [Example 14, 12-dimethylaminoacetyl-10,11-dihydro-5,10-imino-[5H]-dibenzo (a,d) cycloheptene dl] |  |  | 117% | 150 mg/kg |  |  |  |  |  |  |  |  |  |  |  |  |  |  |  |  | total symptom score as percent of the total of control animals (DOPA; 20 mg/Kg i.p.): 160%; total symptom score as percent of the total of control animals (DOPA; 50 mg/Kg i.p.): 196%
CCN1C2Cc3ccccc3C1c1ccccc12 (stereo not drawn) [Example 21, 12-ethyl-10,11-dihydro-5,10-imino-[5H]-dibenzo (a,d) cycloheptene dl] | 187% | 175% |  |  | 48.3 mg/kg | 42.9 mg/kg | 168.2 mg/kg | 47.7 mg/kg | 42.3 mg/kg | 206.2 mg/kg | 57.0 mg/kg | 49.6 mg/kg | 238.1 mg/kg | 10/10 | 6/10 | 0/10 | 58.1 min | 71.5 min |  | 0/10 | average sleeping time (amytal sleeping time; 1 mg/Kg i.p.): 32.1 min; average sleeping time (amytal sleeping time; 2 mg/Kg i.p.): 39.6 min; total symptom score as percent of the total of control animals (DOPA; 5 mg/Kg i.p.): 181%
CN1C2Cc3ccccc3C1c1ccc(Cl)cc12 (stereo not drawn) [Example 26, 8-chloro-12-methyl-10,11-dihydro-5,10-imino-[5H]-dibenzo (a,d) cycloheptene dl] |  |  |  | ~350 mg/kg |  |  |  |  |  |  | 50.8 mg/kg | 43.9 mg/kg | 128 mg/kg | 10/10 | 10/10 | 10/10 | 22.6 min | 27.4 min | 36.0 min | 1/9 | average sleeping time (amytal sleeping time; 50 mg/Kg i.p.): 94.5 min; Dose of pentamethylenetetrazol, Clonic Crisis ([1]; 10 mg/Kg i.p.): 52.0 mg/kg; Dose of pentamethylenetetrazol, Myoclonia ([1]; 10 mg/Kg i.p.): 44.1 mg/kg; Dose of pentamethylenetetrazol, Tonic Crisis ([1]; 10 mg/Kg i.p.): 174.7 mg/kg; Dose of pentamethylenetetrazol, Clonic Crisis ([1]; 20 mg/Kg i.p.): 56.4 mg/kg; Dose of pentamethylenetetrazol, Myoclonia ([1]; 20 mg/Kg i.p.): 49.7 mg/kg; Dose of pentamethylenetetrazol, Tonic Crisis ([1]; 20 mg/Kg i.p.): 230.2 mg/kg; Dose of pentamethylenetetrazol, Clonic Crisis ([1]; 50 mg/Kg i.p.): 66.7 mg/kg; Dose of pentamethylenetetrazol, Myoclonia ([1]; 50 mg/Kg i.p.): 52.6 mg/kg; Dose of pentamethylenetetrazol, Tonic Crisis ([1]; 50 mg/Kg i.p.): 274.2 mg/kg
ClCCN1C2Cc3ccccc3C1c1ccccc12 (stereo not drawn) [Example 27, 12-(2'-chloroethyl)-10,11-dihydro-5,10-imino-[5H]-dibenzo (a,d) cycloheptene dl] |  |  |  | ~150 mg/kg |  |  |  | 52.9 mg/kg | 45.9 mg/kg | 163.2 mg/kg | 56.7 mg/kg | 51.5 mg/kg | 229.8 mg/kg | 10/10 | 8/10 | 2/10 | 42.2 min | 44.8 min | 83.0 min |  | average sleeping time (amytal sleeping time; 2 mg/Kg i.p.): 21.7 min; Dose of pentamethylenetetrazol, Clonic Crisis ([1]; 10 mg/Kg i.p.): 62.1 mg/kg; Dose of pentamethylenetetrazol, Myoclonia ([1]; 10 mg/Kg i.p.): 57 mg/kg; Dose of pentamethylenetetrazol, Tonic Crisis ([1]; 10 mg/Kg i.p.): 258.2 mg/kg
